Experimental data as given in patent publication US10941158B2, “Pyrazole ACC inhibitors and uses thereof” (Gilead Apollo, LLC, priority 2015, dated 2021).
≈ marks a conversion by molar mass, not a printed value. Like-named read-outs stand apart in the source and are kept apart here.

Legend:
human (hACC2) ACC2 = human (hACC2) ACC2 (Homo sapiens, UniProt O00763); experiment: In vitro Acetyl-CoA Carboxylase (ACC) inhibition assay (ADP-Glo), hACC2; type: biochemical
Procedure: The detailed procedure is as follows. […] 10 μL ADP glo reagent was added. […] 20 μL kinase detection reagent was added.
“NA” stands for “not assayed.”

C. albicans ATCC 90028 = experiment: Anti-Fungal (Candida) Activity Assay, broth microtiter MIC; type: cell-based; conditions: read-out: MIC C. albicans ATCC 90028
How it was run: (§1)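 MIC by visual comparison of challenged wells with growth control, scored at 48 h. Setup: CLSI M27-A3 broth microtiter plates, RPMI 1640+MOPS medium, direct colony suspension from overnight Sabouraud agar cultures (35 °C, 24 h).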

C. krusei ATCC 6258 = experiment: as above; type: cell-based; conditions: Pichia kudriavzevii, read-out: MIC C. krusei ATCC 6258
How it was run: as §1

[1] = system: C. parapsilosis ATCC 22019; experiment: as above; type: cell-based; conditions: Lodderomyces parapsilosis, read-out: MIC C. parapsilosis ATCC 22019
How it was run: as §1

Botrtyis cinerea (Bc) = experiment: Growth inhibition assay of fungal pathogens; type: cell-based; conditions: 48 h, read-out: Concentration at 90% Inhibition Bc
How it was run: (§2)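 OD600 (blank-subtracted) plus visual scoring at 48 h, vs 2% DMSO ctrl → % inhibition. Final cpd 50/10/2 or 2/0.4/0.08 ppm. Fm/Bc/Dm spores in 17% V8 broth; Rs as 1.5 mm plugs in ¼ PDB.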

[2] = system: Collectotrichum graminicola (Cg); experiment: Growth inhibition assay of fungal pathogens; type: cell-based; conditions: 48 h, read-out: Concentration at 90% Inhibition Cg
How it was run: (§3)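 Liquid-culture assay in which test compounds are applied at three final concentrations (50, 10, 2 ppm or 2, 0.4, 0.08 ppm). Inoculum levels follow 48 h growth curves for each fungus. Growth is monitored by OD600 and by eye, and the 48 h values give % inhibition against DMSO.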

Diplodia maydis (Dm) = experiment: Growth inhibition assay of fungal pathogens; type: cell-based; conditions: Stenocarpella maydis, 48 h, read-out: Concentration at 90% Inhibition Dm
How it was run: as §2

[3] = system: Fusarium moniliforme (Fm); experiment: Growth inhibition assay of fungal pathogens; type: cell-based; conditions: for IC90: Fusarium verticillioides, 48 h, read-out: Concentration at 90% Inhibition Fm
How it was run: as §2

[4] = system: Fusarium virguliforme (Fv); experiment: Growth inhibition assay of fungal pathogens; type: cell-based; conditions: 48 h
How it was run: as §3

[5] = system: Phytophthora capsici (Pc); experiment: Growth inhibition assay of fungal pathogens; type: cell-based; conditions: for IC90: Phytophthora capsici, read-out: Concentration at 90% Inhibition Pc
How it was run: as §3

Rhizoctonia solani (Rs) = experiment: Growth inhibition assay of fungal pathogens; type: cell-based; conditions: 48 h, read-out: Concentration at 90% Inhibition Rs
How it was run: as §2

Septoria tritici (St) = experiment: Growth inhibition assay of fungal pathogens; type: cell-based; conditions: for IC90: Zymoseptoria tritici, read-out: Concentration at 90% Inhibition St
How it was run: as §3

fungal (fACC2) ACC2 = fungal (fACC2) ACC2 (UniProt Q00955); conditions: read-out: fACC2 IC50; fungal ACC2, ADP-Glo
[6] = ATCC90028, 3 replicates, MIC recorded at 48 h
[7] = ATCC6258, 3 replicates, MIC recorded at 48 h
[8] = ATCC22019, 3 replicates, MIC recorded at 48 h
[9] = read-out: Concentration at 90% Inhibition Fv, Table 4a, 48 hours
[10] = read-out: Concentration at 90% Inhibition Fv, Table 4b, 48 hours

Chain of human (hACC2) ACC2 (O00763 whole entry): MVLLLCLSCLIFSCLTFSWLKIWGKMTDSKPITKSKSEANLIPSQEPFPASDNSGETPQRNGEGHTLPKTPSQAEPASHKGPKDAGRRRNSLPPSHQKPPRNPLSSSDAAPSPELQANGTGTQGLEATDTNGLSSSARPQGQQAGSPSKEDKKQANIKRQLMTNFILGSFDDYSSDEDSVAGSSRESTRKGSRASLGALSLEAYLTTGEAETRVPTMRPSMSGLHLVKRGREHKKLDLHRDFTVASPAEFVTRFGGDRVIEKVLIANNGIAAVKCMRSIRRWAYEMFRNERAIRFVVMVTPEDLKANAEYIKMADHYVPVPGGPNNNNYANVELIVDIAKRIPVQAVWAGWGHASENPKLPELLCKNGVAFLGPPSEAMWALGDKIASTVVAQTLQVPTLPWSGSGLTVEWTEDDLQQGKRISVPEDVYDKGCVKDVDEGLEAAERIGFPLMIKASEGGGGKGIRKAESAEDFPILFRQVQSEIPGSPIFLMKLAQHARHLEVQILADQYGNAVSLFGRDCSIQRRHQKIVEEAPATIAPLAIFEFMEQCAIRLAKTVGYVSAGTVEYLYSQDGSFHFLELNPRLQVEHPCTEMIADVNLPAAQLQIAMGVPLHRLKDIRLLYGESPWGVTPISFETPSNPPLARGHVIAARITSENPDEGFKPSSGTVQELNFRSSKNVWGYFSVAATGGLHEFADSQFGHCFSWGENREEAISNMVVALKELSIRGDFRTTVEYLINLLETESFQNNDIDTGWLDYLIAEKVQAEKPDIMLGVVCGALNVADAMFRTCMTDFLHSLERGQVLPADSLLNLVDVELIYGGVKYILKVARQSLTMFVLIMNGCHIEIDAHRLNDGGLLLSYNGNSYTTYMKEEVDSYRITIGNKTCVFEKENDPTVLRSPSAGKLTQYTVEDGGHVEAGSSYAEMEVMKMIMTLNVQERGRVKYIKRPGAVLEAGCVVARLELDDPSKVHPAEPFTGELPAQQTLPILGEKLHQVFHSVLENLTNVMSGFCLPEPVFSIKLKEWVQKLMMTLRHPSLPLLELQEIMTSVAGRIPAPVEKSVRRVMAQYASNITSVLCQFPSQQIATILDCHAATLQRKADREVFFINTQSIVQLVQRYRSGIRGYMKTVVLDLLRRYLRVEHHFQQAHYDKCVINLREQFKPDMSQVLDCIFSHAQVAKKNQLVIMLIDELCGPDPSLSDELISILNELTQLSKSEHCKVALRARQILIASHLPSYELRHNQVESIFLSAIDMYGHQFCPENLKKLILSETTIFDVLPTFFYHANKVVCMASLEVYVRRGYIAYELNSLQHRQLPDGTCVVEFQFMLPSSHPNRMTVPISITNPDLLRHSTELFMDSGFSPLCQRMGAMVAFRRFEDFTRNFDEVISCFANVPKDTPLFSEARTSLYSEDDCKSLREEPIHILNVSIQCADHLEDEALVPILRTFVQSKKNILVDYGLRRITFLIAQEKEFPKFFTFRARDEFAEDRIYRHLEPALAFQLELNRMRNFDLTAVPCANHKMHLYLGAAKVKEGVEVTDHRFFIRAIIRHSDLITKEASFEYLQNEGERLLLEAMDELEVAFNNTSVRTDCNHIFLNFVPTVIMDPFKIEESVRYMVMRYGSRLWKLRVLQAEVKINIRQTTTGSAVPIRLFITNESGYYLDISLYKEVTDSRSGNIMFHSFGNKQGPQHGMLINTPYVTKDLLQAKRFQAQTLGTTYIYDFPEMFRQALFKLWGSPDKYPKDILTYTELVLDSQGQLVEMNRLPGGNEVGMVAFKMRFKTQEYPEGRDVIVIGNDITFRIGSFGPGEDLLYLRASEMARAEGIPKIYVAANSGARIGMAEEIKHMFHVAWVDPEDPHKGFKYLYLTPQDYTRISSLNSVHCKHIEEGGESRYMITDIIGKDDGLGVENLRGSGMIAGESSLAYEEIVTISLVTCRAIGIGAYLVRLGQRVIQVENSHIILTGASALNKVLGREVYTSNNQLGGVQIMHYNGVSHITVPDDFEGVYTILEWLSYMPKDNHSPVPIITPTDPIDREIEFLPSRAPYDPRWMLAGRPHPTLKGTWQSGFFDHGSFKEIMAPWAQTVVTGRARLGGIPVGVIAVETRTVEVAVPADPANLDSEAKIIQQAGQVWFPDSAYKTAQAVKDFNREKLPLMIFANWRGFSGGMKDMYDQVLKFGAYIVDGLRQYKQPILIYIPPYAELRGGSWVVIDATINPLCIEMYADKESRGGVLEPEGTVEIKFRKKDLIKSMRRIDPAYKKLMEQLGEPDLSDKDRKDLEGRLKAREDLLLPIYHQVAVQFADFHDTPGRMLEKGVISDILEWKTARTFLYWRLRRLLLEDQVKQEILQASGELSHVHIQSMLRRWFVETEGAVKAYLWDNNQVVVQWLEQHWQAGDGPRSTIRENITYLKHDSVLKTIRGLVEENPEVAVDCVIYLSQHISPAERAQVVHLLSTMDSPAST
Chain of fungal (fACC2) ACC2 (Q00955 whole entry): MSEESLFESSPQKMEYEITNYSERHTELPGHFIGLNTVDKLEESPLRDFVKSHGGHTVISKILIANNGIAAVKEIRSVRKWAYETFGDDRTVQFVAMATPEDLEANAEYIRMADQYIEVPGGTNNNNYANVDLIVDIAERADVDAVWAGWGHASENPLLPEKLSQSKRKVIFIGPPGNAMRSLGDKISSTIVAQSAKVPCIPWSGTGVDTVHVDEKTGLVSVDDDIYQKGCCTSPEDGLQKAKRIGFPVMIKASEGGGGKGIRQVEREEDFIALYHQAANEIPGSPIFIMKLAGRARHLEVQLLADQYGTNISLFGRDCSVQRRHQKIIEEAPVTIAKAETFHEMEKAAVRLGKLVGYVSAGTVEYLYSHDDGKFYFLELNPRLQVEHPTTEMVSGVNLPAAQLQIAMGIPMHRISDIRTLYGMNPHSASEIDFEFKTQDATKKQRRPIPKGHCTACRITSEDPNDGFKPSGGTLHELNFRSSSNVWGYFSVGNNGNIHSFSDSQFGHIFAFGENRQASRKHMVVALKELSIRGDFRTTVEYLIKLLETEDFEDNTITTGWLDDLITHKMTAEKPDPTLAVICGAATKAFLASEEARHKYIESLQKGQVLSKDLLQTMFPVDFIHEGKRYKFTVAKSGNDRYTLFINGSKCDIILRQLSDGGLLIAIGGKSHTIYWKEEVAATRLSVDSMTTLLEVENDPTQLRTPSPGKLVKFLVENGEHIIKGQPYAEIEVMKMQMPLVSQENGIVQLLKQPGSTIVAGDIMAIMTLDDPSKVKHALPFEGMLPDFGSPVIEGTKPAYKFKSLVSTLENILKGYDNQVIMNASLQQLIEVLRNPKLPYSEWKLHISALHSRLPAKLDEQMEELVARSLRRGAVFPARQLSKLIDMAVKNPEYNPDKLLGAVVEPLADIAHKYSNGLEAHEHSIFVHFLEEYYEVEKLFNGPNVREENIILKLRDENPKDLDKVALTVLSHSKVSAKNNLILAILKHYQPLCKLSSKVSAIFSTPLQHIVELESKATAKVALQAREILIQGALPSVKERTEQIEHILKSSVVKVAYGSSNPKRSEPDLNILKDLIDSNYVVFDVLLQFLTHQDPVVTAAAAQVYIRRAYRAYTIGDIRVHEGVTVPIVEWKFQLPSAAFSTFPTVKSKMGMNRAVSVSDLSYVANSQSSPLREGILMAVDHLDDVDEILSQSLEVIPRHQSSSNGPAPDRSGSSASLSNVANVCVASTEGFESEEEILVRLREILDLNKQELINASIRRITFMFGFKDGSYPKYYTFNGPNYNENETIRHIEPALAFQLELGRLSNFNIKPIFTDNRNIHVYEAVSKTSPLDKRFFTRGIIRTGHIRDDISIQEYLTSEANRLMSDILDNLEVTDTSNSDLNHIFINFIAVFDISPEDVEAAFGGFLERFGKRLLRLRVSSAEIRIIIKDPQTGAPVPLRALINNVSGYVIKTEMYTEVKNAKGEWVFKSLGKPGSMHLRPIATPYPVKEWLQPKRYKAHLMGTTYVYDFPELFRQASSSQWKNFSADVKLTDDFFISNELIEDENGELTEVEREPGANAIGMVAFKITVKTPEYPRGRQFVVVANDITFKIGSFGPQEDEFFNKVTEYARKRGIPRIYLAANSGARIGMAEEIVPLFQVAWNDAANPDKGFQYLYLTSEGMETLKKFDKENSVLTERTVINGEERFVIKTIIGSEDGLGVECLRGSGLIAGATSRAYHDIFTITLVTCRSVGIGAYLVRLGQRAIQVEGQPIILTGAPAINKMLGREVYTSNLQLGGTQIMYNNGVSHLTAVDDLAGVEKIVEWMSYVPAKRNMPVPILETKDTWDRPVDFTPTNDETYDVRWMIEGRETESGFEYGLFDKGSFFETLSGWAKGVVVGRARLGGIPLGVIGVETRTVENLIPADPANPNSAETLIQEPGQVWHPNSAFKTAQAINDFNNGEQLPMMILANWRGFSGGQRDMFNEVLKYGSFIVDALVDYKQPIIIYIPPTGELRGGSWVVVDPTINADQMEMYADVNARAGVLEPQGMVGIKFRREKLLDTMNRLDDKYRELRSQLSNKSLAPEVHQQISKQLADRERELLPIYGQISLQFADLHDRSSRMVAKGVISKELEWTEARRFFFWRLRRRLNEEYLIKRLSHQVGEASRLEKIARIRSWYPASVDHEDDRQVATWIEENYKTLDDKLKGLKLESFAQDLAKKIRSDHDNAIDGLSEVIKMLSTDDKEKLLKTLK

Structure (SMILES) | IC50 (human (hACC2) ACC2) [nM] | MIC (C. albicans ATCC 90028; [6]) [µg/mL] | MIC (C. krusei ATCC 6258; [7]) [µg/mL] | MIC [1, 8] [µg/mL] | IC90 (Botrtyis cinerea (Bc); Table 4a) [µg/mL] | IC90 (Botrtyis cinerea (Bc); Table 4b) [µg/mL] | IC90 ([2]; Table 4a) [µg/mL] | IC90 ([2]; Table 4b) [µg/mL] | IC90 (Diplodia maydis (Dm); Table 4a) [µg/mL] | IC90 (Diplodia maydis (Dm); Table 4b) [µg/mL] | IC90 (Rhizoctonia solani (Rs); Table 4a) [µg/mL] | IC90 (Rhizoctonia solani (Rs); Table 4b) [µg/mL] | IC50 (fungal (fACC2) ACC2) [nM] | MIC (C. albicans ATCC 90028; ATCC90028, 48 h) [µg/mL] | MIC (C. krusei ATCC 6258; ATCC6258, 48 h) [µg/mL] | MIC ([1]; ATCC22019, 48 h) [µg/mL] | IC90 [3] [µg/mL] | Concentration at 90% Inhibition Fm ([3]; Table 4b, 48 hours) | IC90 [4, 9] [µg/mL] | IC90 [4, 10] [µg/mL] | further results
COc1ccc(F)cc1[C@H](Cn1c(=O)n(C(C)(C)C(=O)NC(C)C)c(=O)c2c(C)c(-n3cccn3)sc21)OC(C)C.I [Compound I-1, (R)-2-(I-(2-(5-fluoro-2-methoxyphenyl)-2-isopropoxyethyl)-5-methyl-2,4-dioxo-6-(1H-pyrazol-1-yl)-1,4-dihydrothieno[2,3-d]pyrimidin-3(2H)-yl)-N-isopropyl-2-methylpropanamide] | 10 to 40 | 2.1 to 4 | 0.25 to 1 | 2.1 to 4 | 0.4 | 0.4 | 2 | 2 | 2 | 2 | 2 | 2 | 0.6 to 3 |  |  |  |  |  |  |  | IC90 ([3]; Table 4a, 48 hours): 0.08 µg/mL; IC90 ([3]; Table 4b, 48 hours): 0.08 µg/mL; IC90 ([4]; Table 4a, 48 hours, read-out: Concentration at 90% Inhibition Fv): 0.4 µg/mL; IC90 ([4]; Table 4b, 48 hours, read-out: Concentration at 90% Inhibition Fv): 0.4 µg/mL; IC90 ([5]; Table 4a, 48 hours): > 50 µg/mL; Concentration at 90% Inhibition Pc ([5]; Table 4b, 48 hours): D (“D” provided a compound concentration of >50 ppm at 90% inhibition of fungal pathogens); Concentration at 90% Inhibition St (Septoria tritici (St); Table 4b, 48 hours): D (“D” provided a compound concentration of >50 ppm at 90% inhibition of fungal pathogens); IC90 (Septoria tritici (St); Table 4a, 48 hours): > 50 µg/mL
COc1ccc(F)cc1[C@H](Cn1c(=O)n(C(C)(C)C(=O)N2CCCCC2)c(=O)c2c(C)c(-n3cccn3)sc21)OC(C)C [Compound I-2, (R)-1-(2-(5-fluoro-2-methoxyphenyl)-2-isopropoxyethyl)-5-methyl-3-(2-methyl-1-oxo-1-(piperidin-1-yl)propan-2-yl)-6-(1H-pyrazol-1-yl)thieno[2,3-d]pyrimidine-2,4(1H,3H)-dione] | 10 to 40 |  |  |  | 0.4 (≈ 0.654 µM) | 0.4 (≈ 0.654 µM) | 2 (≈ 3.27 µM) | 2 (≈ 3.27 µM) | 0.4 (≈ 0.654 µM) | 0.4 (≈ 0.654 µM) | 0.4 (≈ 0.654 µM) | 0.4 (≈ 0.654 µM) | 0.6 to 3 | 0.25 to 1 (≈ 0.409 to 1.63 µM) | 0.25 to 1 (≈ 0.409 to 1.63 µM) | 1.1 to 2 (≈ 1.8 to 3.27 µM) | 0.08 (≈ 0.131 µM) | AA (“AA” provided a compound concentration of 0.08 ppm at 90% inhibition of fungal pathogens) | 0.4 (≈ 0.654 µM) | 0.4 (≈ 0.654 µM) | IC90 ([5]; 48 h, Table 4a): > 50 µg/mL; IC90 ([5]; 48 h, Table 4b): > 50 µg/mL; IC90 (Septoria tritici (St); 48 h, Table 4a): > 50 µg/mL; IC90 (Septoria tritici (St); 48 h, Table 4b): > 50 µg/mL
COc1ccccc1[C@H](Cn1c(=O)n(C(C)(C)C(=O)N2CCCCC2)c(=O)c2c(C)c(-n3cccn3)sc21)OC1CCOCC1 [Compound I-13, (R)-1-(2-(2-methoxyphenyl)-2-((tetrahydro-2H-pyran-4-yl)oxy)ethyl)-5-methyl-3-(2-methyl-1-oxo-1-(piperidin-1-yl)propan-2-yl)-6-(1H-pyrazol-1-yl)thieno[2,3-d]pyrimidine-2,4(1H,3H)-dione] | 10 to 40 |  |  |  | 2 (≈ 3.15 µM) | 2 (≈ 3.15 µM) | > 50 | 10 (≈ 15.7 µM) | > 50 | 10 (≈ 15.7 µM) | > 50 | 10 (≈ 15.7 µM) | 0.6 to 3 | 0.25 to 1 (≈ 0.393 to 1.57 µM) | 0.25 to 1 (≈ 0.393 to 1.57 µM) | 1.1 to 2 (≈ 1.73 to 3.15 µM) | 0.4 (≈ 0.629 µM) | A (“A” provided a compound concentration of 0.4 ppm at 90% inhibition of fungal pathogens) | > 50 | 10 (≈ 15.7 µM) | IC90 ([5]; 48 h, Table 4a): > 50 µg/mL; IC90 ([5]; 48 h, Table 4b): > 50 µg/mL; IC90 (Septoria tritici (St); 48 h, Table 4a): > 50 µg/mL; IC90 (Septoria tritici (St); 48 h, Table 4b): > 50 µg/mL
COc1ccc(F)cc1[C@H](Cn1c(=O)n(C(C)C(N)=O)c(=O)c2c(C)c(-n3cccn3)sc21)OCC(C)(C)O (stereo partly drawn) [Compound I-68] | 10 to 40 | > 4.1 | > 4.1 | > 4.1 |  |  |  |  |  |  |  |  | 0.6 to 3 |  |  |  |  |  |  |  | 
COCCCO[C@@H](Cn1c(=O)n(C(C)C(=O)NC(C)C)c(=O)c2c(C)c(-n3cccn3)sc21)c1cc(F)ccc1OC (stereo partly drawn) [Compound I-69] | 10 to 40 | > 4.1 | > 4.1 | > 4.1 |  |  |  |  |  |  |  |  | 0.6 to 3 |  |  |  |  |  |  |  | 
COCCCO[C@@H](Cn1c(=O)n(C(C)C(=O)N2CCCC2)c(=O)c2c(C)c(-n3cccn3)sc21)c1cc(F)ccc1OC (stereo partly drawn) [Compound I-70] | 10 to 40 | > 4.1 | > 4.1 | > 4.1 |  |  |  |  |  |  |  |  | 0.6 to 3 |  |  |  |  |  |  |  | 
